{"source": "paper PMC3378952", "about": "“Plasmodium subtilisin-like protease 1 (SUB1): Insights into the active-site structure, specificity and function of a pan-malaria drug target” (International Journal for Parasitology, 2012)", "molecules": {"B1": {"name": "PfSUB1 prodomain (PD) released by autocatalytic cleavage of rPfSUB1 (domain or fragment)", "chain": "KEVRSEENGKIQDDAKKIVSELRFLEKVEDVIEKSNIGGNEVDADENSFNPDTEVPIEEIEEIKMRELKDVKEEKNKNDNHNNNNNNNNISSSSSSSSNTFGEEKEEVSKKKKKLRLIVSENHATTPSFFQESLLEPDVLSFLESKGNLSNLKNINSMIIELKEDTTDDELISYIKILEEKGALIESDKLVS"}}, "key": {"rPfSUB1cat [1]": {"target": "T1, rPfSUB1cat (Plasmodium falciparum, UniProt Q8I0V0)", "T1 construct": "core domain (rPfSUB1cat) comprising Ser328 to Tyr671; made in house; host or cells: baculovirus-infected insect cells (Tn5), then limited chymotrypsin digestion", "assay": "Cleavage of unlabelled and AMC peptide substrates by rPfSUB1cat (RP-HPLC)", "format": "biochemical", "conditions": "for hydrolysis by rPfSUB1cat: prolonged incubations, data not shown; for reduction of substrate peak intensity: by 120 min digestion of equimolar mixture, RP-HPLC", "text": "(SERA4st1F-6R12); Ac-CITAQDDEEC (called SERA4st1F-6R); and Ac-[…] (SERA4st1F-6R-S). […] Initial hydrolysis rates were then plotted against inhibitor concentration.\nIn a third approach to investigating the role of prime side interactions in PfSUB1–substrate recognition, we produced a modified form of the SERA4st1 peptide substrate (called SERA4st1-ADA) in which both the P1′ and P3′ residues were replaced by Ala. Based on our MD data, these substitutions would be predicted to abolish potentially important stabilizing interactions with the S′ surface of the enzyme. To compare cleavage efficiencies of SERA4st1 and SERA4st1-ADA, we used a previously-described method in which an equimolar mixture of the two peptides was supplemented with rPfSUB1cat and the rates of peptide hydrolysis established by RP-HPLC analysis of the resulting digestion products ([Child et al., 2010]). Under such conditions, because the peptides effectively act as competing substrates, their relative initial rates of hydrolysis are solely a function of the ability of PfSUB1 to discriminate between them, and so are directly proportional to their relative kcat/Km values, irrespective of their concentration ([Cornish-Bowden, 2004])."}, "PbSUB1": {"target": "T2, PbSUB1 (Plasmodium berghei, UniProt A0A509AM03)", "T2 construct": "recombinant Plasmodium falciparum SUB1 catalytic domain (rPfSUB1cat; closed circles) and rPbSUB1cat (closed triangles); 6-His (C); made in house; host or cells: baculovirus-infected insect cells (Tn5), then limited chymotrypsin digestion", "T2 sequence (A0A509AM03 257-574)": "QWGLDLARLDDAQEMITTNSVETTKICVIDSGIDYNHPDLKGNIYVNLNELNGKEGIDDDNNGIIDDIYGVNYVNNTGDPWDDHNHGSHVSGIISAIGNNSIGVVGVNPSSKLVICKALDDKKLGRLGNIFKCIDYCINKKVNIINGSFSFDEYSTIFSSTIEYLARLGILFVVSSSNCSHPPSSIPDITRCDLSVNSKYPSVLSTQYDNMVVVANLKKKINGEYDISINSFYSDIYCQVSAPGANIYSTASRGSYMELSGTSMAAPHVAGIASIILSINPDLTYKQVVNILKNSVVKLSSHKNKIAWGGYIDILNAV", "assay": "biochemical", "text": "(§1) Initial hydrolysis rates were then plotted against inhibitor concentration."}, "rPvSUB1": {"target": "T3, rPvSUB1 (Plasmodium vivax, UniProt E6Y8B9)", "T3 construct": "6-His (C); made in house; host or cells: baculovirus-infected insect cells (Tn5), then limited chymotrypsin digestion", "T3 sequence (E6Y8B9 287-604)": "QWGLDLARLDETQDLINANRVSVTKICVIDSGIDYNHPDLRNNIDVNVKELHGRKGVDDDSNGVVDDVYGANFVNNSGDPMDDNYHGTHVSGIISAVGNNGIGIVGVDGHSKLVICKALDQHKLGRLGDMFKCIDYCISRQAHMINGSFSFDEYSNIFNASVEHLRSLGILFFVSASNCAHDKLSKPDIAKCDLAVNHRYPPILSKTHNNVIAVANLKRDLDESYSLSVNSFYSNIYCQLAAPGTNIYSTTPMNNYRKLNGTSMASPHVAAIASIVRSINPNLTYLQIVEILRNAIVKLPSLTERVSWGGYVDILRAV", "assay": "biochemical", "conditions": "IC50 against rPvSUB1, dose-response", "text": "as §1"}, "[2]": {"target": "rPfSUB1cat (recombinant P. falciparum SUB1 catalytic domain) (Plasmodium falciparum, UniProt Q8I0V0)", "assay": "biochemical", "conditions": "for IC50: IC50 for steady-state inhibition of rPfSUB1cat, dose-response, substrate 0.1 μM"}, "PfSUB1": {"tested_on": "PfSUB1", "conditions": "cited from earlier work"}, "rPfSUB1cat [3]": {"target": "T1, rPfSUB1cat", "format": "biochemical", "conditions": "substrates 0.1 μM", "text": "as §1"}, "rPbSUB1cat": {"tested_on": "rPbSUB1cat", "conditions": "substrates 0.1 μM", "text": "as §1"}, "rPbSUB1": {"target": "T4, rPbSUB1 (Plasmodium berghei, UniProt A0A509AM03)", "T4 construct": "recombinant Plasmodium falciparum SUB1 catalytic domain (rPfSUB1cat; closed circles) and rPbSUB1cat (closed triangles); 6-His (C); made in house; host or cells: baculovirus-infected insect cells (Tn5), then limited chymotrypsin digestion", "T4 sequence (A0A509AM03 257-574)": "as the sequence (A0A509AM03 257-574) above", "assay": "Cleavage of unlabelled N-acetylated decapeptides by rPbSUB1 (RP-HPLC)", "format": "biochemical", "conditions": "RP-HPLC examination of digestion products"}, "[4]": {"target": "T5, recombinant Plasmodium falciparum subtilisin-like protease 1 (rPfSUB1), p54/p47 protease species (Plasmodium falciparum, UniProt O61142 218-690)", "T5 sequence": "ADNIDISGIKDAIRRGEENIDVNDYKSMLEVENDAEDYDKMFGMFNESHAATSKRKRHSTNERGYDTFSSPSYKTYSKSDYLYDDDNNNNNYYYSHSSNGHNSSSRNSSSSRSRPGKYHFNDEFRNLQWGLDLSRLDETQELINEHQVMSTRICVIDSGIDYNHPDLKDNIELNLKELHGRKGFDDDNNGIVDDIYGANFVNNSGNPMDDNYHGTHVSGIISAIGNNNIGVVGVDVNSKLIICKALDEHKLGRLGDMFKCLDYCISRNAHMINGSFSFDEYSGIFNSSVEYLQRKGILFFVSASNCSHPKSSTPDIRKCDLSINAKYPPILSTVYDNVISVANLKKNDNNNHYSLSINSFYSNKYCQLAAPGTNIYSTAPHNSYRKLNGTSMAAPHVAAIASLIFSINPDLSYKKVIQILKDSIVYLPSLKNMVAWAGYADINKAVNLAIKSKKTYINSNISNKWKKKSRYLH", "assay": "cell-based or functional assay"}, "[5]": {"conditions": "ref Withers-Martinez et al., 2002"}}, "note": "“And” between values parts separate entries of the source, which are not always exact repeats. Identical values can stand only once. *1 amine or outer side, *2 acyl side, *3 side chain or, on linkers, in order; H or OH if unused. Where a SMILES comes first, the peptide text is derived from it. Where no end group is shown, it is not given here. [ ]: non-standard residue; d: D form. The star is where a group is joined. ξ: configuration not given here. ξ3Amino2oxobutanoyl = CC(N[*:1])C(=O)C(=O)[*:2]; Abu(ψCOCO) = CC[C@H](N[*:1])C(=O)C(=O)[*:2]; AMC = Cc1cc(=O)oc2cc(N*)ccc12; βAla = NCCC(=O)O; NHcPr = C1CC1N*", "data": [{"molecule": "CC[C@H](C)[C@H](NC(=O)[C@H](CCCCN)NC(C)=O)C(=O)N[C@H](C(=O)N[C@@H](C)C(=O)N[C@@H](CCC(N)=O)C(=O)Nc1ccc2c(C)cc(=O)oc2c1)[C@@H](C)O", "note": "[Ac-KITAQ-AMC] (Ac-KITAQ-{AMC})", "values": [{"measurement": "hydrolysis by rPfSUB1cat", "setting": "rPfSUB1cat [1]", "result": "completely resistant to hydrolysis"}]}, {"molecule": "CC[C@H](NC(=O)[C@H](C)NC(=O)[C@@H](NC(=O)[C@@H](NC(=O)[C@H](CCCCN)NC(C)=O)[C@@H](C)CC)[C@@H](C)O)C(=O)C(=O)NC1CC1", "note": "[KS-182] (Ac-KITA[Abu(ψCOCO)]-NHcPr)", "values": [{"measurement": "IC50", "setting": "PbSUB1", "result": "≥ 100", "unit": "µM"}, {"measurement": "IC50", "setting": "rPvSUB1", "result": "~12 µM and 12 µM"}, {"measurement": "Ki", "setting": "[2]", "result": 7.3, "unit": "µM"}, {"measurement": "IC50", "setting": "[2]", "result": "~6 µM and 6 µM"}]}, {"molecule": "CC[C@H](C)[C@H](NC(=O)[C@H](CCCCN)NC(C)=O)C(=O)N[C@H](C(=O)N[C@@H](C)C(=O)NC(C)C(=O)C(=O)NCCC(=O)O)[C@@H](C)O", "note": "(stereo partly shown) [KS-466] (Ac-KITA[ξ3Amino2oxobutanoyl][βAla]-OH)", "values": [{"measurement": "IC50", "setting": "rPvSUB1", "result": "2 µM and ~2 µM"}, {"measurement": "Ki", "setting": "[2]", "result": 0.7, "unit": "µM"}, {"measurement": "IC50", "setting": "[2]", "result": "1 µM and ~1 µM"}]}, {"molecule": "O=S(=O)(F)Cc1ccccc1", "note": "[PMSF, phenylmethylsulfonyl fluoride]", "values": [{"measurement": "effect of PMSF on PfSUB1", "setting": "PfSUB1; [5]", "result": "unaffected"}]}, {"molecule": "O=C(O)c1cc[c]([Hg][OH])cc1", "note": "[pHMB, para-hydroxymercuribenzoate]", "values": [{"measurement": "inhibition of PfSUB1 by pHMB", "setting": "PfSUB1; [5]", "result": "potently inhibited"}]}, {"molecule": "Ac-CITAQSDEEC (cysteine pairing not given here) [SERA4st1F-6R-S]", "values": [{"measurement": "effect of P1′ Asp to Ser substitution (vs SERA4st1F-6R) on cleavage by rPfSUB1cat", "setting": "rPfSUB1cat [3]", "result": "no significant effect"}, {"measurement": "fold increase in initial hydrolysis rate by rPbSUB1cat vs SERA4st1F-6R", "setting": "rPbSUB1cat", "result": 5.8, "unit": "fold"}]}, {"molecule": "Ac-DVSGQ↓SENHQ [Ac-DVSGQ ↓ SENHQ]", "values": [{"measurement": "cleavage by rPbSUB1 at the expected position", "setting": "rPbSUB1", "result": "correctly cleaved"}]}, {"molecule": "Ac-EIKAET", "values": [{"measurement": "hydrolysis by rPfSUB1cat", "setting": "rPfSUB1cat [1]", "result": "No hydrolysis"}]}, {"molecule": "Ac-KITAQADAES [SERA4st1-ADA, SERA4st1 with P1′ and P3′ residues replaced by Ala]", "values": [{"measurement": "reduction of substrate peak intensity", "setting": "rPfSUB1cat [1]", "result": "~1", "unit": "%"}, {"measurement": "initial cleavage rate, fold lower than that of parental SERA4st1", "setting": "rPfSUB1cat [1]; equimolar mixture of both peptides, SERA4st1 digested ⩽20%", "result": "at least 80 fold"}]}, {"molecule": "Ac-KITAQDDEES [SERA4st1, N-acetylated decapeptide based on a PfSUB1 processing site in SERA4]", "values": [{"measurement": "reduction of substrate peak intensity", "setting": "rPfSUB1cat [1]", "result": 84.6, "unit": "%"}]}, {"molecule": "Ac-TTRAE↓SEEDI [Ac-TTRAE ↓ SEEDI]", "values": [{"measurement": "cleavage by rPbSUB1 at the expected position", "setting": "rPbSUB1", "result": "correctly cleaved"}]}, {"molecule": "Ac-TTSGQ↓SSTEP [Ac-TTSGQ ↓ SSTEP]", "values": [{"measurement": "cleavage by rPbSUB1 at the expected position", "setting": "rPbSUB1", "result": "correctly cleaved"}]}, {"molecule": "Ac-VVTGE↓SEETS [Ac-VVTGE ↓ SEETS]", "values": [{"measurement": "cleavage by rPbSUB1 at the expected position", "setting": "rPbSUB1", "result": "correctly cleaved"}]}, {"molecule": "B1", "values": [{"measurement": "initial rate of cleavage of fluorogenic substrate SERA4st1F-6R12 (0.1 uM) by rPfSUB1cat (prodomain largely degraded) against an equivalent mass of untreated rPfSUB1 (with its prodomain)", "setting": "[4]", "result": 9.8, "unit": "fold"}, {"measurement": "inhibitor potency against cognate enzyme", "setting": "PfSUB1; ref Jean et al., 2003", "result": "~0.005", "unit": "µM"}]}]}
